Source: US8252793B2, “Bradykinin receptor agonists and uses thereof to treat ocular hypertension and glaucoma” (Alcon Research, Ltd., priority 2010, dated 2012)

Assays:
[1] = test system: primary human ciliary muscle cells (h-CM); assay: Total prostaglandin (PG) release from primary h-CM cells (EIA); type: cell-based; conditions: Homo sapiens, 1 h, 1 hour at 37° C., class symbols (in μM)
Summary of the method: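 Confluent primary h-CM cells, serum-starved (0.8% FBS) 24 h, were exposed to a 9-point concentration series (0.1 nM-10 μM) of bradykinin or BK agonist for 1 hour at 37° C. Total PG released was then quantified by EIA.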

[2] = target: T1, recombinant human bradykinin B2 receptor (Homo sapiens, UniProt P30411); assay: [3H]-BK competition radioligand binding to human cloned B2 receptor (CHO cell membranes); conditions: 0.2 nM [3H]-bradykinin, CHO membranes, 60 min 23° C.; mean ± SEM or single value; Ki from IC50 by Cheng-Prusoff; read-out: [3H]-BK Binding to Human Cloned B2 Receptor (Ki)
T1 construct: expressed in transfected cells; host or cells: Chinese hamster ovary (CHO) cells, membrane homogenates
T1 sequence (P30411 1-391): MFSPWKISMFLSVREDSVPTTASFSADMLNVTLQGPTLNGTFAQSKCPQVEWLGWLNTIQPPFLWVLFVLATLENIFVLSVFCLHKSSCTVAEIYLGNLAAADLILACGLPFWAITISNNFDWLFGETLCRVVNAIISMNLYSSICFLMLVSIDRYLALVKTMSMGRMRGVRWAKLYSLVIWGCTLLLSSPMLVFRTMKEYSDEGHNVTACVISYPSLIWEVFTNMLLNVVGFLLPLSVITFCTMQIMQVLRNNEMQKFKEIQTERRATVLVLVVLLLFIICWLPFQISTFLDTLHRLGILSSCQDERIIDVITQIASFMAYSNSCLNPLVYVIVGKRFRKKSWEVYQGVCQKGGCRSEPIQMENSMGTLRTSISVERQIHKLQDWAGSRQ

[3] = target: T2, BK receptors in human ciliary muscle cells (h-CM) (Homo sapiens, UniProt P30411); assay: Functional assay measuring [Ca2+]i mobilization (FLIPR) in h-CM cells; type: cell-based; conditions: class symbols (in μM), read-out: CaM (EC50)
T2 construct: h-CM cells expressing BK receptors were seeded; endogenous in cells; host or cells: human ciliary muscle (h-CM) cells
T2 sequence (P30411 1-391): T1 sequence (P30411 1-391)
Summary of the method: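 Human ciliary muscle cells loaded 1 h at 23 °C with FLIPR calcium dye in HBSS, 20 mM HEPES, 2.5 mM probenecid, pH 7.4. EC50 by 4-parameter fit.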

Row | EC50 [1] | Ki [2] | EC50 [3] | Structure (SMILES)
1 | > 1 µM | 160 ± 47 nM | < 0.1 µM | COc1nc2c(OCc3c(Cl)ccc(N(C)C(=O)CNC(=O)C4CCN(C5CCNC5)C4)c3Cl)cccc2n1Cc1ccccn1 (stereo not drawn) [Compound 22, N-(2-((2,4-dichloro-3-((2-methoxy-1-(pyridin-2-ylmethyl)-1H-benzo[d]imidazol-4-yloxy)methyl)phenyl)(methyl)amino)-2-oxoethyl)-1,3′-bipyrrolidine-3-carboxamide]
2 | < 0.1 µM | 55.2 nM | < 0.1 µM | COC(=O)c1ccc(CCC(=O)NCC(=O)N(C)c2ccc(Cl)c(COc3cccc4c3nc(OC)n4Cc3ccccn3)c2Cl)cc1 [Compound 37, methyl 4-(3-(2-((2,4-dichloro-3-((2-methoxy-1-(pyridin-2-ylmethyl)-1H-benzo[d]imidazol-4-yloxy)methyl)phenyl)(methyl)amino)-2-oxoethylamino)-3-oxopropyl)benzoate]
3 | > 1 µM | 8 ± 3 nM | 0.1 to 1 µM | Cc1cc(OCc2ccccn2)c2cccc(OCc3c(Cl)ccc(N(C)C(=O)CNC(=O)CCc4ccc(NS(C)(=O)=O)cc4)c3Cl)c2n1 [Compound 29, N-(2-((2,4-dichloro-3-(((2-methyl-4-(pyridin-2-ylmethoxy)quinolin-8-yl)oxy)methyl)phenyl)(methyl)amino)-2-oxoethyl)-3-(4-(methylsulfonamido)phenyl)propanamide]
4 | > 1 µM | 859 nM | 0.1 to 1 µM | CNC(=O)N1CCOC(CC(=O)NCC(=O)N(C)c2ccc(Cl)c(COc3cccc4c3nc(OC)n4Cc3ccccn3)c2Cl)C1 (stereo not drawn) [Compound 79]
5 | > 1 µM | 237 nM | < 0.1 µM | COc1nc2c(OCc3c(Cl)ccc(N(C)C(=O)CNC(=O)CCC4CN=C(N[N+](=O)[O-])NC4)c3Cl)cccc2n1Cc1ccccn1 (stereo not drawn) [Compound 76]
6 | < 0.1 µM | 332 nM | < 0.1 µM | CNC(=O)[C@H]1CC[C@H](CCC(=O)NCC(=O)N(C)c2ccc(Cl)c(COc3cccc4c3nc(OC)n4Cc3ccccn3)c2Cl)CN1 [Compound 38, (2R,5R)-5-(3-((2-((2,4-dichloro-3-(((2-methoxy-1-(pyridin-2-ylmethyl)-1H-benzo[d]imidazol-4-yl)oxy)methyl)phenyl)(methyl)amino)-2-oxoethyl)amino)-3-oxopropyl)-N-methylpiperidine-2-carboxamide]
7 | > 1 µM | 451 nM | < 0.1 µM | CCc1nc2c(OCc3c(Cl)ccc(N(C)C(=O)CNC(=O)CCC4CN=C(NC(C)=O)NC4)c3Cl)cccc2n1Cc1ccccn1 (stereo not drawn) [Compound 61]
